Results as given in EP0752465A1, “Betaine esters for delivery of alcohols” (THE PROCTER & GAMBLE COMPANY, priority 1995, dated 1997).
Where two headings read alike, the source gives them in different places.

Assay: Hydrolysis rate of betaine ester, pH-stat titrator at constant pH and temperature
Type: physicochemical
Details: for profile of hydrolysis: dependence on pH
Method: Test realised under pH-stat configuartion, at controlled temperature (40°C). Concentration in betaine ester used 1.5.10^-2 mol/l
[formula] Test conditions: C12 BEG added to a solution (pH 10.5) of sodium stearate in distilled water. pH and temperature maintained constant all along the test. Percentage of C12 BEG hydrolysed assessed using an automatic pH stat titrator. Concentrations used: C12 BEG 1.25 10^-2 mol/l Sodium stearate: 1 equivalent 1.25 10^-2 mol/l 2 equivalents 2.5 10^-2 mol/l
[formula] • Hydrolysis rate determined with a Radiometer pH stat. • Temperature (40°C) and pH (10.5) maintained constant. Concentration in C12 BEG or new ion pair C12 BEG/DS: 10^-3 mol/l. • Mixture anionic/nonionic: sodium dodecylsulfate (0.43 g/l), sodium stearate (0.013 g/l), alkylethoxylate (Dobanol 45 7 from Shell, 0.38 g/l), N-cocoyl-N-methylglucamine (0.16 g/l). • Kinetics of hydrolysis of C12 BEG/DS, with or without surfactants all follow a first order in [C12BEG/DS].

[1] = 40°C, pH 10.5, with 1 equivalent of sodium dodecylsulfate
[2] = 40°C, pH 10.5, with 3 equivalents of sodium dodecylsulfate
[3] = 40°C, pH 10.5, with 5 equivalents of sodium dodecylsulfate
[4] = 40°C, pH 10.5, with 10 equivalents of sodium dodecylsulfate
[5] = 40°C, pH 10.5, 1.25 10^-2 mol/l, with 2 equivalents of sodium dodecylsulfate
[6] = 40°C, pH 10.5, 1.25 10^-2 mol/l, with 4 equivalents of sodium dodecylsulfate
[7] = 40°C, pH 10.5, 1.25 10^-2 mol/l, with 9 equivalents of sodium dodecylsulfate
[8] = 40°C, pH 10.5, 10^-3 mol/l, with mixture anionic/nonionic
[9] = 40°C, pH 10.5, 10^-3 mol/l, with sodium dodecylsulfate only
[10] = 40°C, pH 10.5, ion pair 1.25 10^-2 mol/l alone
[11] = 40°C, pH 10.5, ion pair 10^-3 mol/l alone
[12] = 40°C, pH 8.5, 1.25 10^-2 mol/l, alone
[13] = 40°C, pH 8.5, with 1 equivalent sodium stearate
[14] = 40°C, pH 8.5, with 2 equivalent sodium stearate

CC(C)=CCC/C(C)=C/COC(=O)C[N+](C)(C)C.[Cl-] [BEG, geranyloxycarbonyl-N,N,N-trimethylmethanaminium chloride]
k (40°C, pH 10.5, alone): 3950 mol^- ^1.l.min^-1
kobs at pH 10.5 (40°C, pH 10.5, alone): 1.25 min^-1
k [1]: 202 mol^- ^1.l.min^-1
kobs at pH 10.5 [1]: 0.064 min^-1
k [2]: 35 mol^- ^1.l.min^-1
kobs at pH 10.5 [2]: 0.0111 min^-1
k [3]: 23.5 mol^- ^1.l.min^-1
kobs at pH 10.5 [3]: 0.0074 min^-1
k [4]: 21 mol^- ^1.l.min^-1
kobs at pH 10.5 [4]: 0.0067 min^-1
half-life (buffer, pH 10.5, 40°C, pH 10.5, alone, read-out: t1/2 at pH 10.5): ~0.5 min
profile of hydrolysis: very dependent on pH
Hydrolysis profile (pH-stat, 40°C, betaine ester 1.5.10^-2 mol/l): very pH dependent
half-life (solution with 1 equivalent sodium dodecylsulfate, pH 10.5, 40°C, pH 10.5, with 1 equivalent of sodium dodecylsulfate, read-out: t1/2 at pH 10.5): 10.8 min
half-life (solution with 3 equivalents sodium dodecylsulfate, pH 10.5, 40°C, pH 10.5, with 3 equivalents of sodium dodecylsulfate, read-out: t1/2 at pH 10.5): 63 min
half-life (solution with 5 equivalents sodium dodecylsulfate, pH 10.5, 40°C, pH 10.5, with 5 equivalents of sodium dodecylsulfate, read-out: t1/2 at pH 10.5): 93 min
half-life (solution with 10 equivalents sodium dodecylsulfate, pH 10.5, 40°C, pH 10.5, with 10 equivalents of sodium dodecylsulfate, read-out: t1/2 at pH 10.5): 104 min

CCCCCCCCCCCCOS(=O)(=O)[O-].CCCCCCCCCCCC[N+](C)(C)CC(=O)OC/C=C(\C)CCC=C(C)C [C12 BEG/DS]
k [5]: 10.6 mol^- ^1.l.min^-1
k obs [5]: 0.0034 min⁻¹
t1/2 (40°C, pH 10.5, 1.25 10^-2 mol/l, with 2 equivalents of sodium dodecylsulfate, 12500 µM): 206 min
k [6]: 26.1 mol^- ^1.l.min^-1
k obs [6]: 0.0083 min⁻¹
t1/2 (40°C, pH 10.5, 1.25 10^-2 mol/l, with 4 equivalents of sodium dodecylsulfate, 12500 µM): 84 min
k [7]: 32.8 mol^- ^1.l.min^-1
k obs [7]: 0.0104 min⁻¹
t1/2 (40°C, pH 10.5, 1.25 10^-2 mol/l, with 9 equivalents of sodium dodecylsulfate, 12500 µM): 67 min
k [8]: 37 mol^- ^1.l.min^-1
k obs [8]: 0.01169 min⁻¹
t1/2 (40°C, pH 10.5, 10^-3 mol/l, with mixture anionic/nonionic, 1000 µM): 59 min
k [9]: 28.6 mol^- ^1.l.min^-1
k obs [9]: 0.0095 min⁻¹
t1/2 (40°C, pH 10.5, 10^-3 mol/l, with sodium dodecylsulfate only, 1000 µM): 77 min
k [10]: 229 mol^- ^1.l.min^-1
k obs [10]: 0.0724 min⁻¹
t1/2 (40°C, pH 10.5, ion pair 1.25 10^-2 mol/l alone, 12500 µM): 9.6 min
k [11]: 423.7 mol^- ^1.l.min^-1
k obs [11]: 0.134 min⁻¹
t1/2 (40°C, pH 10.5, ion pair 10^-3 mol/l alone, 1000 µM): 5.2 min

CCCCCCCCCCCC[N+](C)(C)CC(=O)OC/C=C(\C)CCC=C(C)C.[Br-] [C12 BEG, Geranyloxycarbonyl-N,N-dimethyl-N-dodecylmethanaminium bromide]
kobs at pH 8.5 (40°C, alone): >30 min^-1
k [12]: >100 000 mol^- ^1.l.min^-1
kobs at pH 8.5 [12]: >0.3 min^-1
k [13]: 20 333 mol^- ^1.l.min^-1
kobs at pH 8.5 [13]: 0.0643 min^-1
k [14]: 904 mol^- ^1.l.min^-1
kobs at pH 8.5 [14]: 0.00286 min^-1
k (40°C, pH 10.5, 1.25 10^-2 mol/l, alone): >100 000 mol^- ^1.l.min^-1
k (40°C, pH 10.5, 10^-3 mol/l, alone): >15000 mol^- ^1.l.min^-1
k (40°C, pH 10.5, alone): >100 000 mol^- ^1.l.min^-1
k obs (40°C, pH 10.5, high betaine ester concentration 1.25 10^-2 mol/l, alone): >30 min⁻¹
k obs (40°C, pH 10.5, lower concentration 10^-3 mol/l, alone): >5 min⁻¹
k (40°C, pH 10.5, with 1 equivalent sodium dodecylsulfate): 5.3 mol^- ^1.l.min^-1
k (40°C, pH 10.5, with 1 equivalent sodium hexadecylsulfonate): 1580 mol^- ^1.l.min^-1
k (40°C, pH 10.5, with 2 equivalents sodium stearate): 1265 mol^- ^1.l.min^-1
kobs at pH 8.5 (40°C, with 1 equivalent sodium dodecylsulfate): 0.0017 min^-1
kobs at pH 8.5 (40°C, with 1 equivalent sodium hexadecylsulfonate): 0.5 min^-1
kobs at pH 8.5 (40°C, with 2 equivalents sodium stearate): 0.4 min^-1
half-life at 0.0125 mol/l (buffer, pH 8.5, 40°C, pH 8.5, 1.25 10^-2 mol/l, alone, read-out: t1/2 pH 8.5): < 2 min
half-life at 0.0125 mol/l (buffer, pH 10.5, 40°C, pH 10.5, 1.25 10^-2 mol/l, alone, read-out: t1/2): < 0.0333 min
half-life (buffer, pH 10.5, 40°C, pH 10.5, 10^-3 mol/l, alone, read-out: t1/2): < 0.167 min
half-life (buffer, pH 10.5, 40°C, pH 10.5, alone, read-out: t1/2 pH 10.5): < 0.0333 min
rate of hydrolysis at pH neutral (∼7) (compared with a normal ester, C12 BEG 1.25 10^-2 mol/l): far faster than for a normal ester
profile of hydrolysis: very dependent on pH
half-life at 0.0125 mol/l (sodium stearate solution in distilled water (1 equivalent), pH 8.5, 40°C, pH 8.5, with 1 equivalent sodium stearate, read-out: t1/2 pH 8.5): 11 min
half-life at 0.0125 mol/l (sodium stearate solution in distilled water (2 equivalents), pH 8.5, 40°C, pH 8.5, with 2 equivalent sodium stearate, read-out: t1/2 pH 8.5): 243 min
half-life at 0.0125 mol/l (sodium stearate solution in distilled water (2 equivalents), pH 10.5, 40°C, pH 10.5, with 2 equivalents sodium stearate, read-out: t1/2 pH 10.5): 1.7 min
half-life (solution with 1 equivalent sodium dodecylsulfate, pH 10.5, 40°C, pH 10.5, with 1 equivalent sodium dodecylsulfate, read-out: t1/2 pH 10.5): 414 min
half-life (solution with 1 equivalent sodium hexadecylsulfonate, pH 10.5, 40°C, pH 10.5, with 1 equivalent sodium hexadecylsulfonate, read-out: t1/2 pH 10.5): 1.4 min
